Reference: patent publication US20230159537A1, “COMPOUND, PREPARATION METHOD THEREOF, AND USE THEREOF IN PREPARATION OF ANTI-CANCER DRUG” (TIANJIN JIKUN MEDICAL TECHNOLOGY CO., LTD., priority 2020, published 2023)

How the values were obtained:
FGFR3 = target: T1, FGFR3 (Homo sapiens, UniProt P22607); experiment: HTRF enzyme activity test, FGFR3; format: biochemical
T1 construct: made in house; host or cells: Escherichia coli
Procedure: In the present disclosure, the homogeneous time-resolved fluorescence (HTRF) technology was used to evaluate an inhibitory effect of a compound on the four subtypes FGFR1, FGFR2, FGFR3, and FGFR4. FGFR1, FGFR2, FGFR3, and FGFR4 prokaryotic expression vectors were first constructed; and when the prokaryotic expression vectors were identified as correct, FGFR proteins were expressed and purified on a large scale in an Escherichia coli (E. coli) system, and protein concentrations were determined. Resulting proteins were stored in aliquots. Before an enzyme activity test was started, cisbio HTRF KinEA (62TK0PEB) was used to pre-dilute each component required in an enzyme activity system with an enzyme activity buffer to a required working concentration. A 384-well plate (66PL384025) was prepared, 5 μL of a protein solution, 1 μL of a compound, and 2 μL of a substrate were added to each well, and 2 μL of ATP was finally added to initiate a reaction. Three parallel experiments were set for each concentration. […] The 384-well plate was sealed and incubated at room temperature for about 1 h. […] Finally, the TECAN infinite M1000PRO multi-function microplate reader was used to detect a fluorescence signal, an inhibition rate was calculated, and an IC50 value was fitted with GraphPad Prism 7.0.

A549 = experiment: cells; settings: Homo sapiens, A549, 96 h, read-out: Anti-proliferation IC50 A549
Huh-7 = experiment: MTT cell proliferation assay, Huh-7; format: cell-based; settings: tumor cells with normal FGFR expression (Huh-7, A549 of Table 2)

T1 sequence (P22607 23-806): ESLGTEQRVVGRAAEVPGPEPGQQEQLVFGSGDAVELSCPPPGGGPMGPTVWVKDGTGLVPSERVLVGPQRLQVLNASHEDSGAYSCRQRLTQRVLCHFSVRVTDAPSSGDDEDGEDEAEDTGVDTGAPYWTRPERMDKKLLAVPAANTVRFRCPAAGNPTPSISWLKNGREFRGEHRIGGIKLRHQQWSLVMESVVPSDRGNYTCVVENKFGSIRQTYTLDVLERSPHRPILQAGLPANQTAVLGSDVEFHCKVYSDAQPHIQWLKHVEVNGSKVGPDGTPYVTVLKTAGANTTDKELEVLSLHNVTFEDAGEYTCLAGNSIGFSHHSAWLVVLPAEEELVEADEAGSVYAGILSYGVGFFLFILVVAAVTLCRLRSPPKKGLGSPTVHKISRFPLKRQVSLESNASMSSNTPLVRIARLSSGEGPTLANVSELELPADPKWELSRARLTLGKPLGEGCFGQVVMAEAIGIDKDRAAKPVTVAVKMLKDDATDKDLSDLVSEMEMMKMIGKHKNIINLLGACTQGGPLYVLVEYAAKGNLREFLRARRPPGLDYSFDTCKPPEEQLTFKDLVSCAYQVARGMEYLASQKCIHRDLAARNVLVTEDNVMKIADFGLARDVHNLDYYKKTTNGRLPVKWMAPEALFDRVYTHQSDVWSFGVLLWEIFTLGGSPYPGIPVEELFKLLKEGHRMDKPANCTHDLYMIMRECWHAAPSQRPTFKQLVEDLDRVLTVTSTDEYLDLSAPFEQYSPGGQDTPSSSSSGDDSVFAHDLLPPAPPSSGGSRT

IC50 (FGFR3) [nM] | IC50 (A549) [µM] | Compound | inhibitory effect on tumor cells with normal FGFR expression (in words) (Huh-7)
> 5000 | – | C=CC(=O)N1CCN(CCCCCn2nc(-c3cccc(OCc4ccccc4)c3)c3c(N)ncnc32)CC1 [Compound 26] | –
– | > 10 | COc1cc(OC)cc(-c2nn(CCCCCN3CCN(C(=O)/C=C/C(F)(F)F)CC3)c3ncnc(N)c23)c1 [Compound 36] | no obvious inhibitory effect
